{
  "source": "patent US9364467B2",
  "about": "(Salix Pharmaceuticals, Ltd, priority 2012, dated 2016)",
  "key": {"[1]": {"system": "Enterobacteriaceae spp. strains", "experiment": "In vitro activity (MIC) against Enterobacteriaceae spp. strains"}, "[2]": {"target": "Bombesin BB1 (Homo sapiens, UniProt P28336)", "sequence (P28336 whole entry)": "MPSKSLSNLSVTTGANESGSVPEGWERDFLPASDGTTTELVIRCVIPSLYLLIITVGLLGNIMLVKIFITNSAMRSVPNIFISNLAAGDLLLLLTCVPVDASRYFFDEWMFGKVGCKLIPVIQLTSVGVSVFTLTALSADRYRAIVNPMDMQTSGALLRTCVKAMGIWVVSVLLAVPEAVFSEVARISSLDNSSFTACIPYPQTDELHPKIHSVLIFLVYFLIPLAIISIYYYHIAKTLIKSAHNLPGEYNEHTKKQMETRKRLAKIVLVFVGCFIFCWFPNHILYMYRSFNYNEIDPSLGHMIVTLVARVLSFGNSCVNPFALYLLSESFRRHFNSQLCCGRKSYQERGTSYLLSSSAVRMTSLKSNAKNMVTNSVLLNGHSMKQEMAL", "experiment": "Radioligand binding assay, Bombesin BB1", "conditions": "CONC. 10 μM, hum", "method": "Methods employed in this study have been adapted from the scientific literature to maximize reliability and reproducibility. Reference standards were run as an integral part of each assay to ensure the validity of the results obtained. Assays were performed under conditions described in the accompanying “Methods” section below. The literature reference(s) for each assay are in the “Literature References” section.\nWhere presented, IC50 values were determined by a non-linear, least squares regression analysis using MathIQ™ (ID Business Solutions Ltd., UK). Where inhibition constants (KI) are presented, the KI values were calculated using the equation of Cheng and Prusoff (Cheng, Y., Prusoff, W. H., Biochem. Pharmacol. 22:3099-3108, 1973) using the observed IC50 of the tested compound, the concentration of radioligand employed in the assay, and the historical values for the KD of the ligand (obtained experimentally at Ricerca Biosciences, LLC). Where presented, the Hill coefficient (nH), defining the slope of the competitive binding curve, was calculated using MathIQ™. […] Where IC50, KI, and/or nH data are presented without Standard Error of the Mean (SEM), data are insufficient to be quantitative, and the values presented (KI, IC50, nH) should be interpreted with caution. […]"}},
  "data": [
    {"smiles": "COC1/C=C/O[C@@]2(C)Oc3c(C)c(O)c4c(O)c(c5c(c4c3C2=O)NC2C=C(C)C=CN52)NC(=O)/C(C)=C\\C=C\\C(C)C(O)C(C)C(O)C(C)C(O)C1C", "note": "(some centres unmarked) [25-desacetyl rifaximin]", "values": [
      {"measurement": "MIC", "setting": "[1]; Klebsiella aerogenes, E. aerogenes 1023", "value": 128, "unit": "µg/mL"},
      {"measurement": "MIC", "setting": "[1]; Klebsiella aerogenes, E. aerogenes 1030", "value": 256, "unit": "µg/mL"},
      {"measurement": "MIC", "setting": "[1]; Klebsiella aerogenes, E. aerogenes 1031", "value": 128, "unit": "µg/mL"},
      {"measurement": "MIC", "setting": "[1]; Klebsiella oxytoca, K. oxytoca 4", "value": 128, "unit": "µg/mL"},
      {"measurement": "MIC", "setting": "[1]; Klebsiella oxytoca, K. oxytoca 18", "value": 128, "unit": "µg/mL"},
      {"measurement": "MIC", "setting": "[1]; Klebsiella oxytoca, K. oxytoca 479", "value": 128, "unit": "µg/mL"},
      {"measurement": "MIC", "setting": "[1]; Klebsiella oxytoca, K. oxytoca 499", "value": 128, "unit": "µg/mL"},
      {"measurement": "MIC", "setting": "[1]; Klebsiella pneumoniae, K. pneumoniae 17", "value": 128, "unit": "µg/mL"},
      {"measurement": "MIC", "setting": "[1]; Klebsiella pneumoniae, K. pneumoniae 19", "value": 128, "unit": "µg/mL"},
      {"measurement": "MIC", "setting": "[1]; Klebsiella pneumoniae, K. pneumoniae 76", "value": 256, "unit": "µg/mL"},
      {"measurement": "MIC", "setting": "[1]; Klebsiella pneumoniae, K. pneumoniae 80", "value": 128, "unit": "µg/mL"},
      {"measurement": "MIC", "setting": "[1]; Klebsiella pneumoniae, K. pneumoniae 91", "value": 128, "unit": "µg/mL"},
      {"measurement": "MIC", "setting": "[1]; Klebsiella pneumoniae, K. pneumoniae 1064", "value": 128, "unit": "µg/mL"},
      {"measurement": "MIC", "setting": "[1]; Morganella morganii, M. morganii 42", "value": 128, "unit": "µg/mL"},
      {"measurement": "MIC", "setting": "[1]; Morganella morganii, M. morganii 48", "value": 128, "unit": "µg/mL"},
      {"measurement": "MIC", "setting": "[1]; Morganella morganii, M. morganii 50", "value": 128, "unit": "µg/mL"},
      {"measurement": "MIC", "setting": "[1]; Morganella morganii, M. morganii 57", "value": 256, "unit": "µg/mL"},
      {"measurement": "MIC", "setting": "[1]; Morganella morganii, M. morganii 67", "value": 256, "unit": "µg/mL"},
      {"measurement": "MIC", "setting": "[1]; Morganella morganii, M. morganii 101", "value": 128, "unit": "µg/mL"},
      {"measurement": "MIC", "setting": "[1]; Morganella morganii, M. morganii 105", "value": 128, "unit": "µg/mL"},
      {"measurement": "MIC", "setting": "[1]; Morganella morganii, M. morganii 108", "value": 128, "unit": "µg/mL"},
      {"measurement": "MIC", "setting": "[1]; Morganella morganii, M. morganii 453", "value": 128, "unit": "µg/mL"},
      {"measurement": "MIC", "setting": "[1]; Morganella morganii, M. morganii 458", "value": 256, "unit": "µg/mL"},
      {"measurement": "MIC", "setting": "[1]; Morganella morganii, M. morganii 461", "value": 128, "unit": "µg/mL"},
      {"measurement": "MIC", "setting": "[1]; Morganella morganii, M. morganii 462", "value": 128, "unit": "µg/mL"},
      {"measurement": "MIC", "setting": "[1]; Morganella morganii, M. morganii 923", "value": 128, "unit": "µg/mL"},
      {"measurement": "MIC", "setting": "[1]; Morganella morganii, M. morganii 932", "value": 128, "unit": "µg/mL"},
      {"measurement": "MIC", "setting": "[1]; Morganella morganii, M. morganii 935", "value": 256, "unit": "µg/mL"},
      {"measurement": "MIC", "setting": "[1]; Morganella morganii, M. morganii 1006", "value": 128, "unit": "µg/mL"},
      {"measurement": "MIC", "setting": "[1]; Proteus mirabilis, P. mirabilis 465", "value": 128, "unit": "µg/mL"},
      {"measurement": "MIC", "setting": "[1]; Proteus mirabilis, P. mirabilis 466", "value": 128, "unit": "µg/mL"},
      {"measurement": "MIC", "setting": "[1]; Proteus mirabilis, P. mirabilis 469", "value": 128, "unit": "µg/mL"},
      {"measurement": "MIC", "setting": "[1]; Proteus mirabilis, P. mirabilis 470", "value": 128, "unit": "µg/mL"},
      {"measurement": "MIC", "setting": "[1]; Proteus mirabilis, P. mirabilis 471", "value": 256, "unit": "µg/mL"},
      {"measurement": "MIC", "setting": "[1]; Proteus mirabilis, P. mirabilis 472", "value": 128, "unit": "µg/mL"},
      {"measurement": "MIC", "setting": "[1]; Proteus mirabilis, P. mirabilis 473", "value": 128, "unit": "µg/mL"},
      {"measurement": "MIC", "setting": "[1]; Proteus mirabilis, P. mirabilis 477", "value": 128, "unit": "µg/mL"},
      {"measurement": "MIC", "setting": "[1]; Proteus mirabilis, P. mirabilis 479", "value": 128, "unit": "µg/mL"},
      {"measurement": "MIC", "setting": "[1]; Proteus mirabilis, P. mirabilis 480", "value": 256, "unit": "µg/mL"},
      {"measurement": "MIC", "setting": "[1]; Proteus mirabilis, P. mirabilis 489", "value": 128, "unit": "µg/mL"},
      {"measurement": "MIC", "setting": "[1]; Proteus mirabilis, P. mirabilis 928", "value": 128, "unit": "µg/mL"},
      {"measurement": "MIC", "setting": "[1]; Proteus mirabilis, P. mirabilis 972", "value": 128, "unit": "µg/mL"},
      {"measurement": "MIC", "setting": "[1]; Proteus mirabilis, P. mirabilis 983", "value": 128, "unit": "µg/mL"},
      {"measurement": "MIC", "setting": "[1]; Proteus mirabilis, P. mirabilis 985", "value": 256, "unit": "µg/mL"},
      {"measurement": "MIC", "setting": "[1]; Proteus mirabilis, P. mirabilis 987", "value": 128, "unit": "µg/mL"},
      {"measurement": "MIC", "setting": "[1]; Proteus mirabilis, P. mirabilis 988", "value": 128, "unit": "µg/mL"},
      {"measurement": "MIC", "setting": "[1]; Proteus mirabilis, P. mirabilis 990", "value": 128, "unit": "µg/mL"},
      {"measurement": "MIC", "setting": "[1]; Proteus mirabilis, P. mirabilis 991", "value": 128, "unit": "µg/mL"},
      {"measurement": "MIC", "setting": "[1]; Proteus mirabilis, P. mirabilis 993", "value": 128, "unit": "µg/mL"},
      {"measurement": "MIC", "setting": "[1]; Proteus mirabilis, P. mirabilis 995", "value": 128, "unit": "µg/mL"},
      {"measurement": "MIC", "setting": "[1]; Proteus mirabilis, P. mirabilis 996", "value": 128, "unit": "µg/mL"},
      {"measurement": "MIC", "setting": "[1]; Proteus mirabilis, P. mirabilis 997", "value": 128, "unit": "µg/mL"},
      {"measurement": "MIC", "setting": "[1]; Proteus mirabilis, P. mirabilis 998", "value": 256, "unit": "µg/mL"},
      {"measurement": "MIC", "setting": "[1]; Providencia stuartii, P. stuartii 94", "value": 128, "unit": "µg/mL"},
      {"measurement": "MIC", "setting": "[1]; Providencia stuartii, P. stuartii 299", "value": 128, "unit": "µg/mL"},
      {"measurement": "MIC", "setting": "[1]; Providencia stuartii, P. stuartii 301", "value": 128, "unit": "µg/mL"},
      {"measurement": "MIC", "setting": "[1]; Providencia stuartii, P. stuartii 306", "value": 256, "unit": "µg/mL"},
      {"measurement": "MIC", "setting": "[1]; Providencia stuartii, P. stuartii 312", "value": 128, "unit": "µg/mL"},
      {"measurement": "MIC", "setting": "[1]; Providencia stuartii, P. stuartii 459", "value": 128, "unit": "µg/mL"},
      {"measurement": "MIC", "setting": "[1]; S. liquefaciens 55", "value": 256, "unit": "µg/mL"},
      {"measurement": "MIC", "setting": "[1]; S. odorifera 59", "value": 128, "unit": "µg/mL"},
      {"measurement": "MIC", "setting": "[1]; Serratia marcescens, S. marcescens 38", "value": 128, "unit": "µg/mL"},
      {"measurement": "MIC", "setting": "[1]; Serratia marcescens, S. marcescens 45", "value": 128, "unit": "µg/mL"},
      {"measurement": "MIC", "setting": "[1]; Serratia marcescens, S. marcescens 59", "value": 128, "unit": "µg/mL"},
      {"measurement": "MIC", "setting": "[1]; Serratia marcescens, S. marcescens 63", "value": 256, "unit": "µg/mL"},
      {"measurement": "MIC", "setting": "[1]; Stenotrophomonas maltophilia, S. maltophilia 1203", "value": 128, "unit": "µg/mL"},
      {"measurement": "MIC", "setting": "[1]; Stenotrophomonas maltophilia, S. maltophilia 1208", "value": 128, "unit": "µg/mL"},
      {"measurement": "inhibition at 10 µM", "setting": "[2]", "value": "> 50", "unit": "%"}
    ]}
  ]
}
